Assay [1] can be described thus: Binding affinity to recombinant TNFalpha (unknown origin) expressed in Escherichia coli BL21 (DE3) assessed as Kd for TNF-alpha-TNFR1 binding at 100 uM pe-incubated for 15 mins before TNFR1 addition and measured after 15 mins by MST assay (Rvb = 0.23 uM).
A short description of assay [2]: Binding affinity to recombinant TNFalpha (unknown origin) expressed in Escherichia coli BL21 (DE3) assessed as Kd for TNF-alpha-TNFR1 binding at 10 uM pe-incubated for 15 mins before TNFR1 addition and measured after 15 mins by MST assay (Rvb = 0.23 uM).

Consider `O=C1C[C@H](Nc2ncnc3[nH]cnc23)CN1Cc1ccccc1`, for which the Kd turned out to be 19.6 µM in assay [1] and 4.26 µM in assay [2].

For orientation: Kd means a measure of binding affinity in units of concentration.

(Values after BindingDB's records for doi:10.1021/acs.jmedchem.0c00377 (Huazhong University of Science and Technology, 2020).)
